Test results reported in patent US6794389B2, “Quinazoline derivatives and drugs” (Nippon Shinyaku Co., Ltd., priority 2000, dated 2004).
Where “and” joins values, the source holds several entries; their conditions need not be identical. Equal entries are not always repeated. Structures can show the parent of a compound that is named as a salt.

Legend:
nociceptin receptor = molecular target: T1, nociceptin receptor (Homo sapiens, UniProt P41146); experiment: Nociceptin receptor binding assay ([3H]nociceptin, cell membrane suspension); conditions: [3H]nociceptin 0.08 nM, 25° C., 60 minutes; Ki calculated from IC50 and Kd; read-out: Affinity for nociceptin receptors Ki
T1 construct: expressed in transfected cells
Method: A cell membrane suspension obtained from a human nociceptin-expressing cell was prepared so that it contained 5 to 10 μg/mL of the membrane protein in a Tris buffer [50 mM Tris-HCl (pH 7.8), 5 mM MgCl2, 1 mM EGTA, 0.1% BSA]. To this, [^3H]nociceptin (diluted at the final concentration of 0.08 nM with the Tris buffer) and a tested substance were added and the mixture was incubated at 25° C. for 60 minutes. Using a cell harvester and a washing solution [50 mM Tris-HCl (pH 7.8), 4° C.], the membrane was recovered onto a GF/B filter which had been pretreated with 0.3% PEI, which was then washed further 4 times. The filter was transferred to a vial, to which a scintillator was added, and the radioactivity was measured using a liquid scintillation counter. Noted that a non-specific binding was regarded as a binding in the presence of 10 μM nociceptin, and a specific binding was obtained by subtracting the non-specific binding from the total binding. From a ratio of binding inhibition in the presence of the tested substance, an IC50 value was obtained, and was then used together with the Kd value for [^3H]nociceptin to calculate the K1 value for the tested substance.

μ-receptor = molecular target: T2, μ-receptor (Homo sapiens, UniProt P35372); experiment: μ-Receptor binding assay ([3H]diprenorphine, cell membrane preparation); conditions: [3H]diprenorphine 0.13 nM, 25° C., 90 minutes; Ki calculated from IC50 and Kd; read-out: Affinity for μ-receptor Ki
T2 construct: purchased Receptor Biology
Method: A human μ-receptor-expressing cell membrane preparation (Receptor Biology) was prepared so that it contained 8.5 μg/mL of the membrane protein in a Tris buffer [50 mM Tris-HCl (pH 7.8), 5 MM MgCl2, 1 mM EGTA, 0.1% BSA]. To this, [^3H]diprenorphine (diluted at the final concentration of 0.13 nM with the Tris buffer) and a tested substance were added and the mixture was incubated at 25° C. for 90 minutes. Using a cell harvester and a washing solution [50 mM Tris-HCl (pH 7.8), 4° C.], the membrane was recovered onto a GF/B filter which had been pretreated with 0.3% PEI, which was then washed further 4 times. The filter was transferred to a vial, to which a scintillator was added, and the radioactivity was measured using a liquid scintillation counter. A non-specific binding was regarded as a binding in the presence of 100 μM naloxone, and a specific binding was obtained by subtracting the non-specific binding from the total binding. From a ratio of binding inhibition in the presence of the tested substance, and IC50 value was obtained, and was then used together with the Kd value for [^3H]diprenorphine to calculate the Ki value of the tested substance.

[1] = test system: acetic acid-induced writhing reactions in mice; experiment: Acetic acid-writhing test in mice; type: in vivo, mice (Slc:ddY); conditions: 10 nmol/animal intrathecal, male mice, counted over 20 minutes after 0.6% acetic acid intraperitoneally; for Number of writhings (individual animal): animal No. 1-10; for Number of writhings (Mean): mean of 10 animals (saline control 17.67)
Method: Ten male mice (Slc:ddY, 4 to 5 weeks old) were assigned to each group. The dorsal skin of each mouse was incised laterally in a length of approximately 3 cm, and after acclimatizing for 30 minutes or longer a 27G needle fitted on the tip of a silicone tube connected to a microsyringe was inserted into a position around L3-L4, through which 5 μL of a drug solution was infused, whereby effecting an administration into a spinal subarachnoid cavity. The tested substance was dissolved in physiological saline, and administered at 10 nmol/animal. In a control group, physiological saline was administered similarly.
A mouse which had been fasting since the day before the experiment was placed in an observation cage (20×20×15 cm), where it was allowed to be acclimatized over a period of 30 minutes or longer, and then received 100 μL per 10 g body weight of a 0.6% acetic acid solution intraperitoneally via a 27G needle. The number of the writhing reactions with stretching the abdomen was counted over 20 minutes after the administration of acetic acid, and the obtained data were represented as means±standard errors. Only the screening data were subjected to the test for a significant difference by a t test between the two groups of the control and a treatment group or by one-way analysis of variance among multiple groups followed by Dunnett's multiple comparison test, and the significant difference was regarded to be present when p<0.05.

T1 sequence (P41146 whole entry): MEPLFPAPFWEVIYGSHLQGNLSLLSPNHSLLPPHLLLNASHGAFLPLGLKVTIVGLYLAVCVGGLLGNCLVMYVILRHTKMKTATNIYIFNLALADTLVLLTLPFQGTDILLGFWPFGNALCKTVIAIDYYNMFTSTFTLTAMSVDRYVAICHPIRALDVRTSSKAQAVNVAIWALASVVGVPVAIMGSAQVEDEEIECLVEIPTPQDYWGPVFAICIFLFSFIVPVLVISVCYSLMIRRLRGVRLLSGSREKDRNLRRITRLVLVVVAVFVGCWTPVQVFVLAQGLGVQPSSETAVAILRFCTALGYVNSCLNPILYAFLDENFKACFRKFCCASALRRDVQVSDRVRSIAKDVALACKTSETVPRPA
T2 sequence (P35372 whole entry): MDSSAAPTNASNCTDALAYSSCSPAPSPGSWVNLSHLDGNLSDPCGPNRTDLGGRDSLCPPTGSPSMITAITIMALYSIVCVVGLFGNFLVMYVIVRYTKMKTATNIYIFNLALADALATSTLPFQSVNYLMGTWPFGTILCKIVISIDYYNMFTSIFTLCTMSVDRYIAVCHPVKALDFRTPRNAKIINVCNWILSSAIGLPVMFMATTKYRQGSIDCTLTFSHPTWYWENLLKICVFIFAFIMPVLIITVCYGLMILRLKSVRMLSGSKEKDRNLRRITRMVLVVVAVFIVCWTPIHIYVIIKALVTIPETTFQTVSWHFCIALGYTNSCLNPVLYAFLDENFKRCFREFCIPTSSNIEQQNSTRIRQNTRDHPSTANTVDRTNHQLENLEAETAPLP

Row | Ki (nociceptin receptor) [nM] | Ki (μ-receptor) [nM] | Compound | Number of writhings (individual animal) ([1]; listed as Ex. 4, Trihydrochloride) | Number of writhings (Mean) [1] | Number of writhings (individual animal) ([1]; listed as Ex. 46, Trihydrochloride) | Number of writhings (individual animal) ([1]; listed as Ex. 23, Dihydrochloride) | Number of writhings (individual animal) ([1]; listed as Ex. 48, Trihydrochloride)
1 | 3 | 32 | COc1ccc2nc(C=Cc3ccccn3)nc(N[C@H]3CC[C@@H](CNC(=N)N)C[C@H]3C)c2c1 (relative stereo) [Example 68, cis-4-Guanidinomethyl-cis-2-methyl-N-{6-methoxy-2-[2-(2-pyridyl)ethenyl]quinazolin-4-yl}cyclohexylamine Trihydrochloride] | – | – | – | – | –
2 | 4 | 22 | COc1ccc2nc(C=Cc3ccccn3)nc(NCCN(CCc3ccccc3)C(=N)N)c2c1 [Example 66, N-Amidino-2-{6-methoxy-2-[2-(2-pyridyl)ethenyl]quinazolin-4-yl}aminoethyl-phenylethylamine Trihydrochloride] | – | – | – | – | –
3 | 6 | 193 | COc1ccc2nc(NC(=O)c3ccc(Cl)cc3)nc(N[C@H]3CCCC[C@H]3NC(=N)N)c2c1 (relative stereo) [Example 2, cis-N-Amidino-2-[2-(4-chlorobenzoylamino)-6-methoxyquinazolin-4-yl]aminocyclohexylamine Dihydrochloride] | – | – | – | – | –
4 | – | – | COc1ccc2nc(C=Cc3ccccn3)nc(NC(C)CCCCCNC(=N)N)c2c1.Cl.Cl.Cl (stereo not drawn) [Example 48, N-Amidino-6-{6-methoxy-2-[2-(2-pyridyl)ethenyl]quinazolin-4-yl}aminoheptylamine Trihydrochloride] | – | 5.60 | – | – | 7 and 0 (4×) and 6 and 16 and 1 and 14 and 12
5 | 9 | 38 | COc1ccc2nc(C=Cc3ccc(Cl)cc3)nc(NCCCCCCNC(=N)N)c2c1 [Example 16, N-Amidino-N′-[2-(4-chlorostyryl)-6-methoxyquinazolin-4-yl]-1,6-hexanediamine Dihydrochloride] | – | – | – | – | –
6 | 7 | 30 | COc1ccc2nc(C=Cc3ccccn3)nc(NC[C@H]3CC[C@@H](CNC(=N)N)CC3)c2c1 [Example 44, cis-N-Amidino-N′-{6-methoxy-2-[2-(2-pyridyl)ethenyl]quinazolin-4-yl}-1,4-bis(aminomethyl)cyclohexane Trihydrochloride] | – | – | – | – | –

Row | Compound | Ki (nociceptin receptor) [nM] | Ki (μ-receptor) [nM] | Number of writhings (individual animal) ([1]; listed as Ex. 4, Trihydrochloride) | Number of writhings (Mean) [1] | Number of writhings (individual animal) ([1]; listed as Ex. 46, Trihydrochloride) | Number of writhings (individual animal) ([1]; listed as Ex. 23, Dihydrochloride) | Number of writhings (individual animal) ([1]; listed as Ex. 48, Trihydrochloride)
7 | cis-4-Guanidinomethyl-N-{2-[2-(2-pyridyl)ethenyl]-6-methoxyquinazolin-4-yl}cyclohexylamine Trihydrochloride [Example 4] | 8 | 63 | 18 and 12 (2×) and 10 and 0 (2×) and 2 and 11 and 1 and 13 | 7.90 | – | – | –
8 | Cc1ccc2nc(C=Cc3ccccn3)nc(NCCCCCCNC(=N)N)c2c1.Cl.Cl.Cl [Example 46, N-Amidino-N′-{6-methyl-2-[2-(2-pyridyl)ethenyl]quinazolin-4-yl}-1,6-hexanediamine Trihydrochloride] | 3 | 23 | – | 4.50 | 0 (4×) and 13 and 6 and 3 and 10 and 4 and 9 | – | –
9 | COc1ccc2nc(C=Cc3ccccn3)nc(NCCCCCCNC(=N)N)c2c1.Cl.Cl [Example 23, N-Amidino-N′-{6-methoxy-2-[2-(2-pyridyl)ethenyl]quinazolin-4-yl}-1,6-hexanediamine Dihydrochloride] | 3 | 19 | – | 6.90 | – | 14 and 0 (5×) and 6 and 18 and 28 and 3 | –
